Source: patent US20050266469A1, “Alternatively spliced isoforms of checkpoint kinase 1 (CHK1)” (priority 2004, published 2005)
Like-named read-outs stand apart in the source and are kept apart here.

Key:
[1] = target: T1, CHK1sv1 (Homo sapiens, UniProt O14757); experiment: CHK1sv1 kinase assay (Homogenous Time-Resolved Fluorescence, synthetic peptide substrate); assay type: biochemical
T1 construct: made in house; host or cells: SF9 insect cells (baculovirus, pVL1393 transfer vector)
T1 sequence (O14757 with tags, fused parts or gaps): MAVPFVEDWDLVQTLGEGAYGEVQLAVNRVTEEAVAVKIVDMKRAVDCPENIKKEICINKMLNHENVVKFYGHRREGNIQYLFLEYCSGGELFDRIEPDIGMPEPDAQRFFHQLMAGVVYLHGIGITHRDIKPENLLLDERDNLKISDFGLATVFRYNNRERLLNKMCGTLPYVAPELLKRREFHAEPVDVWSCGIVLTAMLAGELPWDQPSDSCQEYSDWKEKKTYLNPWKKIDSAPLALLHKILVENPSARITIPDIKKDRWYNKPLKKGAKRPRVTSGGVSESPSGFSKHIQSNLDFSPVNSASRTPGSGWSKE
Experimental: CHK1sv1 activity was assayed in vitro using a synthetic peptide substrate. The phophopeptide product was quantitated using a Homogenous Time-Resolved Fluorescence assay system (Park et al., 1999, Anal. Biochem. 269:94-104). The reaction mixture contained 40 mM HEPES, pH 7.3; 100 mM NaCl; 10 mM MgCl2; 2 mM dithiothreitol; 0.1% BSA; 0.1 mM ATP; 0.5 μM peptide substrate; and 0.1 nM CHK1sv1 enzyme in a final volume of 40 μl. […] The kinase reaction was incubated for 30 minutes at 22° C., and then terminated with 60 μl Stop/Detection Buffer (40 mM HEPES, pH 7.3; 10 mM EDTA; 0.125% Triton X-100; 1.25% BSA; 250 nM PhycoLink Streptavidin-Allophycocyanin (APC) Conjugate (Prozyme, San Leandro, Calif.); and […] Europium-chelate labeled anti-phosphotyrosine antibody (PY20, Perkin Elmer, Boston, Mass.)). The reaction was allowed to equilibrate for 2 hours at 22° C., and relative fluorescent units were read on a Discovery plate reader (Packard Biosciences). ATP Km was determined by varying ATP concentration from 0.003 to 3 mM in the reaction described above and determining the relative enzymatic rates. […] CHK1sv1 Vmax was calculated by determining the amount of phospho-peptide product formed per microgram of CHKsv1 when both ATP and CDC25C peptide substrate are at saturating concentrations.

[2] = target: T2, reference CHK1 (Homo sapiens, UniProt O14757); conditions: cited from earlier work
T2 sequence (O14757 1-476): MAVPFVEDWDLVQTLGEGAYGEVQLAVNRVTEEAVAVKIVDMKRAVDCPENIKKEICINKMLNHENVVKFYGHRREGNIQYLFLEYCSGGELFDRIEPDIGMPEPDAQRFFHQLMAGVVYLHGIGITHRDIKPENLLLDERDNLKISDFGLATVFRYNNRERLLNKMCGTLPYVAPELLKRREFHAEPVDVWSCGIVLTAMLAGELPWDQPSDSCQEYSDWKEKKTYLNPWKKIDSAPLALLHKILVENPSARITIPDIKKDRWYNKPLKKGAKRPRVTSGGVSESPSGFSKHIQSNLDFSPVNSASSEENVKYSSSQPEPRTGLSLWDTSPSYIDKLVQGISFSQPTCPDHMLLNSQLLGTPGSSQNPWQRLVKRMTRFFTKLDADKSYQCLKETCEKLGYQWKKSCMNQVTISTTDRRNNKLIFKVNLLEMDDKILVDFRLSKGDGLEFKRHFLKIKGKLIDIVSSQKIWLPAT

[3] = read-out: CHK1sv1 inhibition by derivatives of staurosporin, IC50 values, CHK1sv1 enzyme 0.1 nM, 0.1 mM ATP, 0.5 μM peptide substrate, 30 minutes at 22° C.

Compound: CN(C)C[C@H]1CCn2c(c(C3=C(c4cn(C)c5ccccc45)C(=O)NC3=O)c3ccccc32)C1 [RO-320432]
- IC50 ([1]; CHK1sv1 enzyme 0.1 nM, 0.1 mM ATP, 0.5 μM peptide substrate, 30 minutes at 22° C.): 390 nM

Compound: COC(=O)[C@@]1(O)C[C@H]2O[C@]1(C)n1c3ccccc3c3c4c(c5c6ccccc6n2c5c31)C(=O)NC4 [K252A]
- IC50 [1]: 50 nM

Compound: Cn1c2ccccc2c2c3c(c4c5ccccc5n(CCC#N)c4c21)CNC3=O [Gö6976]
- IC50 [1, 3]: 0.75 nM
- IC50 ([2]; previously published (Davies et al., 2000), read-out: IC50 value for the reference CHK1 inhibited by Gö6976): 3 nM

Compound: CDC25C substrate: peptide derived from the known CHK1 kinase substrate CDC25C, GLYRSPSMPENLNR (SynPep) (listed as Homo sapiens)
- Km ([1]; CDC25C-derived peptide varied from 0.0003 to 1 mM): 120 µM
- Km ([2]; previously described (O'Neill et al., 2002; Jackson et al., 2000), read-out: Km (CDC25C substrate)): 12 µM

Compound: Cn1cc(C2=C(c3cn(CCCN)c4ccccc34)C(=O)NC2=O)c2ccccc21 [RO317549]
- IC50 [1, 3]: 125 nM
